{
  "source": "ChEMBL document CHEMBL4387741",
  "about": "“Optimization of novel reversible Bruton's tyrosine kinase inhibitors identified using Tethering-fragment-based screens” (Bioorg Med Chem, 2019)",
  "key": {"[1]": {"target": "Cyclin-dependent kinase 4 (Homo sapiens) (UniProt P11802)", "assay": "Inhibition of wild-type human full length CDK4 (M1 to E303 residues) expressed in mammalian expression system at 1 uM by Kinomescan method relative to control"}, "[2]": {"target": "Tyrosine-protein kinase Mer (Homo sapiens) (UniProt Q12866)", "assay": "Inhibition of wild-type human partial length MERTK (R557 to L884 residues) expressed in bacterial expression system at 1 uM by Kinomescan method relative to control"}, "[3]": {"target": "Mitogen-activated protein kinase 12 (Homo sapiens) (UniProt P53778)", "assay": "Inhibition of wild-type human full length p38-gamma (M1 to L367 residues) expressed in mammalian expression system at 1 uM by Kinomescan method relative to control"}, "[4]": {"target": "Tyrosine-protein kinase Fer (Homo sapiens) (UniProt P16591)", "sequence (P16591 whole entry, looked up, the tested form may be a part)": "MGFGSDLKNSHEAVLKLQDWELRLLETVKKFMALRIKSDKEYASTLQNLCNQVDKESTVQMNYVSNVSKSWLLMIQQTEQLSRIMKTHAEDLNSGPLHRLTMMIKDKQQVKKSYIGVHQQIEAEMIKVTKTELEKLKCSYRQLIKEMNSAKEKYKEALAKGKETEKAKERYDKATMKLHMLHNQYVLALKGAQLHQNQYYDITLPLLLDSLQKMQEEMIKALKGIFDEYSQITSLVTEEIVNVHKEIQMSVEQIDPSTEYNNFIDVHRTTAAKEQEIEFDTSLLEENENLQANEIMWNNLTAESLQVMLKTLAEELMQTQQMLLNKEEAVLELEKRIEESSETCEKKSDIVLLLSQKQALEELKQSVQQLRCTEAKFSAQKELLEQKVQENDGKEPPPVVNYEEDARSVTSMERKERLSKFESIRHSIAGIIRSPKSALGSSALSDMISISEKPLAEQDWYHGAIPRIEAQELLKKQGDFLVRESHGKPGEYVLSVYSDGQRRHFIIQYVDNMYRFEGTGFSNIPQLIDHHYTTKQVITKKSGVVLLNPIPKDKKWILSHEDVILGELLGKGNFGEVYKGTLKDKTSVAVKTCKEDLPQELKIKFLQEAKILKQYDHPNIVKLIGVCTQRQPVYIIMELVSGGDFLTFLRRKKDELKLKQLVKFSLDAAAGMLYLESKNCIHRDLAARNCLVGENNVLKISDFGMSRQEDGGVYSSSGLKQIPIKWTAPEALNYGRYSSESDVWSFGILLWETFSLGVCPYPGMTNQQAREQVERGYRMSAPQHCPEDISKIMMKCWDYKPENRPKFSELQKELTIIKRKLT", "assay": "Inhibition of wild-type human partial length FER (S542 to T822 residues) expressed in bacterial expression system at 1 uM by Kinomescan method relative to control"}, "[5]": {"target": "Cyclin-dependent kinase 13 (Homo sapiens) (UniProt Q14004)", "assay": "Inhibition of wild-type human partial length CDC2L5 (H675 to S1054 residues) expressed in mammalian expression system at 1 uM by Kinomescan method relative to control"}, "[6]": {"target": "Cyclin-dependent kinase 4/cyclin D1 (Homo sapiens) (UniProt P11802+P24385)", "assay": "Inhibition of wild-type human full length CDK4/cyclinD1 (M1 to E303 residues) expressed in mammalian expression system at 1 uM by Kinomescan method relative to control"}, "[7]": {"target": "Casein kinase I isoform gamma-1 (Homo sapiens) (UniProt Q9HCP0)", "assay": "Inhibition of wild-type human partial length CSNK1G1 (T15 to S353 residues) expressed in bacterial expression system at 1 uM by Kinomescan method relative to control"}, "[8]": {"target": "Mast/stem cell growth factor receptor Kit (Homo sapiens) (UniProt P10721)", "assay": "Inhibition of wild-type human partial length KIT (I571 to D952 residues) expressed in bacterial expression system at 1 uM by Kinomescan method relative to control"}, "[9]": {"target": "Mitogen-activated protein kinase kinase kinase 3 (Homo sapiens) (UniProt Q99759)", "assay": "Inhibition of wild-type human partial length MAP3K3 (E320 to Y626 residues) expressed in mammalian expression system at 1 uM by Kinomescan method relative to control"}, "[10]": {"target": "cAMP-dependent protein kinase catalytic subunit alpha (Homo sapiens) (UniProt P17612)", "assay": "Inhibition of wild-type human partial length PKAC-alpha (G10 to F351 residues) expressed in bacterial expression system at 1 uM by Kinomescan method relative to control"}, "[11]": {"target": "Ephrin type-A receptor 7 (Homo sapiens) (UniProt Q15375)", "assay": "Inhibition of wild-type human partial length EPHA7 (Y608 to S912 residues) expressed in bacterial expression system at 1 uM by Kinomescan method relative to control"}, "[12]": {"target": "Serine/threonine-protein kinase ULK1 (Homo sapiens) (UniProt O75385)", "sequence (O75385 whole entry, the tested form may be a part)": "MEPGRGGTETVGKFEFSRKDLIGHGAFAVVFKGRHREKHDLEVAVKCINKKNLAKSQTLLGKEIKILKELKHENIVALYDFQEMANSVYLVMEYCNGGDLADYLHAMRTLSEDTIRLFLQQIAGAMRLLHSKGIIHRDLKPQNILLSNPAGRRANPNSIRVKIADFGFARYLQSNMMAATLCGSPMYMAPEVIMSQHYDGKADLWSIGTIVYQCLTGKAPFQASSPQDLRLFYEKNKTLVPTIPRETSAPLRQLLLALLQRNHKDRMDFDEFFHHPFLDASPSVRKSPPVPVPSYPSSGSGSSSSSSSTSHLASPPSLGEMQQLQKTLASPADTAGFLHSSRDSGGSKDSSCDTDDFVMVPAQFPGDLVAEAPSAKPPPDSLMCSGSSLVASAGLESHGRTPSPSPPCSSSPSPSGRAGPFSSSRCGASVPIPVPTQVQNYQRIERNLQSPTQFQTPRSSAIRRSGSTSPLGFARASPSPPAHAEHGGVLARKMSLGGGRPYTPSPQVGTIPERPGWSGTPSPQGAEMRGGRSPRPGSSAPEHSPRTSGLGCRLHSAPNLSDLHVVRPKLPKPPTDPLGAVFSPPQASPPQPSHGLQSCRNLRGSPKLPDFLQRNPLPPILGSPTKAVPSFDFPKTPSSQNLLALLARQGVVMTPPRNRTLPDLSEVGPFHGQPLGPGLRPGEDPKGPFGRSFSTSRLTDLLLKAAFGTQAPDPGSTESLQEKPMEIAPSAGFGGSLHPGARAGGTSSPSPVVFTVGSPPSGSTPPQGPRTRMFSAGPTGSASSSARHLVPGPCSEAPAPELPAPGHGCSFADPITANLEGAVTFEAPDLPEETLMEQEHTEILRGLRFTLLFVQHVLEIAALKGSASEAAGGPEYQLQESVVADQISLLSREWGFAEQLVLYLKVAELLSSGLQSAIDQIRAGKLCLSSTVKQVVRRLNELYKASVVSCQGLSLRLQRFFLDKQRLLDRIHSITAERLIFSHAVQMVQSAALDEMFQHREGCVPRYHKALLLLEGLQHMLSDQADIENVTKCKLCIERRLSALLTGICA", "assay": "Inhibition of wild-type human partial length ULK1 (M1 to T309 residues) expressed in mammalian expression system at 1 uM by Kinomescan method relative to control"}, "[13]": {"target": "Ribosomal protein S6 kinase alpha-4 (Homo sapiens) (UniProt O75676)", "sequence (O75676 whole entry, looked up, the tested form may be a part)": "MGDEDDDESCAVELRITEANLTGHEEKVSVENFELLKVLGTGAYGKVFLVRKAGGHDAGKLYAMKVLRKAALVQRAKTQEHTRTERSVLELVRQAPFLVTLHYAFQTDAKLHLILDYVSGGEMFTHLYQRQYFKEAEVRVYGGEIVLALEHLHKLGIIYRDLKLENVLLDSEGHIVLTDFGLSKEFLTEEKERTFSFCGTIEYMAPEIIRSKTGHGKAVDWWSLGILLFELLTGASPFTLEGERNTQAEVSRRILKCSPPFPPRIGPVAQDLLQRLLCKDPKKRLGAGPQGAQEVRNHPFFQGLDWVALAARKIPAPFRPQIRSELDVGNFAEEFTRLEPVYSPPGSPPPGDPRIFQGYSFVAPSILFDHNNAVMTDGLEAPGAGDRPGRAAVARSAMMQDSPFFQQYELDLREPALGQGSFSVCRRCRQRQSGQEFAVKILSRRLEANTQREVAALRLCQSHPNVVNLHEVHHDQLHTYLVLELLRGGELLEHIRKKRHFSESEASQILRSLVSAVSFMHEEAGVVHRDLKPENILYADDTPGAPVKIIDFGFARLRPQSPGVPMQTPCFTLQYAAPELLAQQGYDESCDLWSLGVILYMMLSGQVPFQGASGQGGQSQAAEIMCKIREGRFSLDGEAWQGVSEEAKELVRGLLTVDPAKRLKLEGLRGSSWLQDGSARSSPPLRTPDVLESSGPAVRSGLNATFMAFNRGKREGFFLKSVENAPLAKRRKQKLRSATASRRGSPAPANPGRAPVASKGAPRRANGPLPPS", "assay": "Inhibition of wild-type human partial length C-terminal RPS6KA4 kinase domain 2 (M375 to T705 residues) expressed in mammalian expression system at 1 uM by Kinomescan method relative to control"}, "[14]": {"target": "Citron Rho-interacting kinase (Homo sapiens) (UniProt O14578)", "assay": "Inhibition of wild-type human partial length CIT (M68 to E432 residues) expressed in bacterial expression system at 1 uM by Kinomescan method relative to control"}, "[15]": {"system": "Tyrosine-protein kinase ABL1 (Homo sapiens), P00519 [F317I]", "assay": "Inhibition of human non-phosphorylated ABL1 F317I mutant (S229 to K512 residues) expressed in mammalian expression system at 10 uM by Kinomescan method relative to control"}, "[16]": {"target": "Dual specificity protein kinase CLK4 (Homo sapiens) (UniProt Q9HAZ1)", "sequence (Q9HAZ1 whole entry, looked up, the tested form may be a part)": "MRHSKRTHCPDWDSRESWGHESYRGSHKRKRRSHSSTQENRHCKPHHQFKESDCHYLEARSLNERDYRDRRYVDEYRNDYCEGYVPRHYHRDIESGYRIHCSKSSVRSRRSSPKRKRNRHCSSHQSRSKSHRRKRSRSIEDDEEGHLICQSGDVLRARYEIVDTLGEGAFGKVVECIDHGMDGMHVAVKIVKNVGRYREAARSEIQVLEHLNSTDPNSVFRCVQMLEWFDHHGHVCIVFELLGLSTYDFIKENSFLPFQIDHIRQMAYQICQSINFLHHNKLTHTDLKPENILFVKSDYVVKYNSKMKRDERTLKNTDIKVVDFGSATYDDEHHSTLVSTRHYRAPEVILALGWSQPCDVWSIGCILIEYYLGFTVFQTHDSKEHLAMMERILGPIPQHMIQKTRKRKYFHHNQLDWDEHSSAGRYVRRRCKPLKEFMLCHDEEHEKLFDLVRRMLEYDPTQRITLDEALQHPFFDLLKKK", "assay": "Inhibition of wild-type human partial length CLK4 (R135 to K481 residues) expressed in bacterial expression system at 10 uM by Kinomescan method relative to control"}, "[17]": {"target": "MAP kinase-activated protein kinase 5 (Homo sapiens) (UniProt Q8IW41)", "assay": "Inhibition of wild-type human partial length MAPKAPK5 (M1 to D322 residues) expressed in mammalian expression system at 10 uM by Kinomescan method relative to control"}, "[18]": {"system": "Fibroblast growth factor receptor 3 (Homo sapiens), P22607 [G697C]", "assay": "Inhibition of human partial length FGFR3 G697C mutant (R442 to S771 residues) expressed in bacterial expression system at 10 uM by Kinomescan method relative to control"}, "[19]": {"target": "Glycogen synthase kinase-3 beta (Homo sapiens) (UniProt P49841)", "assay": "Inhibition of wild-type human full length GSK3B (M1 to T433 residues) expressed in mammalian expression system at 10 uM by Kinomescan method relative to control"}, "[20]": {"target": "Receptor-type tyrosine-protein kinase FLT3 (Homo sapiens) (UniProt P36888)", "sequence (P36888 whole entry, the tested form may be a part)": "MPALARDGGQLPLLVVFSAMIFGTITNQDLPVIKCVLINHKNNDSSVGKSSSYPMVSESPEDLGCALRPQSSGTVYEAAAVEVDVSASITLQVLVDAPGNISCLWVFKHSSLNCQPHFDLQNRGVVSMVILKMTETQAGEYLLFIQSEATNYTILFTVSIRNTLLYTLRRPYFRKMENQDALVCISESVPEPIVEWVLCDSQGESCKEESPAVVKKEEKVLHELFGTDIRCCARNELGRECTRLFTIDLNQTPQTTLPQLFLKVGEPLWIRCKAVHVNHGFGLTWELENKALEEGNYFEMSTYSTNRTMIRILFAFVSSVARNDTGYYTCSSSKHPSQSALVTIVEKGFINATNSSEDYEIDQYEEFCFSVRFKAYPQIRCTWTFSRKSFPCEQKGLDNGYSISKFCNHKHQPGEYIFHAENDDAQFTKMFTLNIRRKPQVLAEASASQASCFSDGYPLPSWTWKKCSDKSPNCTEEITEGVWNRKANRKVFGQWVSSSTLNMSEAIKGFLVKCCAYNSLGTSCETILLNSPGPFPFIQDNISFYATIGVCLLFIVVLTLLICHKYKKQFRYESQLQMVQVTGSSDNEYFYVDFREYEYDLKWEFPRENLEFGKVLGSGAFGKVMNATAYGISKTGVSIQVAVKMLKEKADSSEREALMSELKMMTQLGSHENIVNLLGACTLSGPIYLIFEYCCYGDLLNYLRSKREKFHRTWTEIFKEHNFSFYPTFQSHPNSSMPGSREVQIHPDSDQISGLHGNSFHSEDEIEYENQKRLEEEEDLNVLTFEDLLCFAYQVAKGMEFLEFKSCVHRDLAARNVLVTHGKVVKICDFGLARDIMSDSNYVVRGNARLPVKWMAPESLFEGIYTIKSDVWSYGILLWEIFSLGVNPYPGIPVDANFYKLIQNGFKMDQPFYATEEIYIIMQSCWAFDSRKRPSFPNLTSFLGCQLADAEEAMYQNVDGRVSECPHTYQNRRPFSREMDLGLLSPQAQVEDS", "assay": "Inhibition of wild-type human partial length FLT3 (V592 to Y969 residues) expressed in bacterial expression system at 10 uM by Kinomescan method relative to control"}, "[21]": {"system": "Mast/stem cell growth factor receptor Kit (Homo sapiens), P10721 [V559D,T670I]", "assay": "Inhibition of human partial length KIT V559D/T670I double mutant (Y545 to D952 residues) expressed in bacterial expression system at 10 uM by Kinomescan method relative to control"}, "[22]": {"target": "Serine/threonine-protein kinase Nek3 (Homo sapiens) (UniProt P51956)", "assay": "Inhibition of wild-type human full length NEK3 (M1 to R506 residues) expressed in mammalian expression system at 10 uM by Kinomescan method relative to control"}, "[23]": {"target": "Serine/threonine-protein kinase PknB (Mycobacterium tuberculosis) (UniProt P9WI81)", "assay": "Inhibition of wild-type Mycobacterium tuberculosis partial length PKNB (M1 to G279 residues) expressed in mammalian expression system at 10 uM by Kinomescan method relative to control"}, "[24]": {"target": "Ribosomal protein S6 kinase alpha-4 (Homo sapiens) (UniProt O75676)", "assay": "Inhibition of wild-type human partial length N-terminal RPS6KA4 kinase domain 1 expressed in bacterial expression system at 10 uM by Kinomescan method relative to control"}, "[25]": {"target": "Tyrosine-protein kinase Lyn (Homo sapiens) (UniProt P07948)", "assay": "Inhibition of wild-type human partial length LYN (C219 to Q511 residues) expressed in bacterial expression system at 10 uM by Kinomescan method relative to control"}, "[26]": {"target": "Cyclin-dependent kinase 2 (Homo sapiens) (UniProt P24941)", "assay": "Inhibition of wild-type human full length CDK2 (M1 to L298 residues) expressed in bacterial expression system at 10 uM by Kinomescan method relative to control"}, "[27]": {"target": "Ephrin type-A receptor 2 (Homo sapiens) (UniProt P29317)", "sequence (P29317 whole entry, the tested form may be a part)": "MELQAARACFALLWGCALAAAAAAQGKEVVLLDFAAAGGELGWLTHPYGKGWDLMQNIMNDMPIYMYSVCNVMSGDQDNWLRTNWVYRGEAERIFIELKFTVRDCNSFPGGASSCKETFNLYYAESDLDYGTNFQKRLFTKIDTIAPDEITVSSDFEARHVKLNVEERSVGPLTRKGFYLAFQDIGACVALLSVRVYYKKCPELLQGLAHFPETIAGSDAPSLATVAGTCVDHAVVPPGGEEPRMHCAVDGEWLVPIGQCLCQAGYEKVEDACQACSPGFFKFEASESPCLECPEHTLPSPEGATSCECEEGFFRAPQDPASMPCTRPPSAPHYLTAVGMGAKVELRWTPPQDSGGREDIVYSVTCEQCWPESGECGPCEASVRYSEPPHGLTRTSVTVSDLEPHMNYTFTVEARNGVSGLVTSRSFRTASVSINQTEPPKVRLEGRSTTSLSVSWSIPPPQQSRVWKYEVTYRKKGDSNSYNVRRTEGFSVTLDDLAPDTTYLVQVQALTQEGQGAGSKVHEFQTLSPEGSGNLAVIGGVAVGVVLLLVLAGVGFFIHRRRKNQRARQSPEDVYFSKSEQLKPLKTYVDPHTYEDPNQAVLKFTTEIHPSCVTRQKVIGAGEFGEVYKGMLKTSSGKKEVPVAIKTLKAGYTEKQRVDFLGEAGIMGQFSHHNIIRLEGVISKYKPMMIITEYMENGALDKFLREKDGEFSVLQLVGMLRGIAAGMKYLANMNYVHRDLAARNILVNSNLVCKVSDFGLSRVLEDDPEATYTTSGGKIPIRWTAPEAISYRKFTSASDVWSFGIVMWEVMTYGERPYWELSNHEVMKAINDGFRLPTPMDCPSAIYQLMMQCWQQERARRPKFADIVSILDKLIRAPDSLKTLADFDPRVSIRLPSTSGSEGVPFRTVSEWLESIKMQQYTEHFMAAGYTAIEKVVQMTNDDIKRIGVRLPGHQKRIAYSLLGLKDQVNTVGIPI", "assay": "Inhibition of wild-type human partial length EPHA2 (T593 to V891 residues) expressed in bacterial expression system at 10 uM by Kinomescan method relative to control"}},
  "data": [
    {"smiles": "O=C(Nc1cccc([C@@H]2CN(c3ncnc4[nH]ccc34)CCN2CCO)c1)Nc1c(F)cccc1N1CCCC1", "values": [
      {"measurement": "inhibition", "setting": "[1]", "result": 100, "unit": "%"},
      {"measurement": "inhibition", "setting": "[2]", "result": 31, "unit": "%"},
      {"measurement": "inhibition", "setting": "[3]", "result": 81, "unit": "%"},
      {"measurement": "inhibition", "setting": "[4]", "result": 82, "unit": "%"},
      {"measurement": "inhibition", "setting": "[5]", "result": 96, "unit": "%"},
      {"measurement": "inhibition", "setting": "[6]", "result": 100, "unit": "%"},
      {"measurement": "inhibition", "setting": "[7]", "result": 100, "unit": "%"},
      {"measurement": "inhibition", "setting": "[8]", "result": 73, "unit": "%"},
      {"measurement": "inhibition", "setting": "[9]", "result": 42, "unit": "%"},
      {"measurement": "inhibition", "setting": "[10]", "result": 76, "unit": "%"},
      {"measurement": "inhibition", "setting": "[11]", "result": 100, "unit": "%"},
      {"measurement": "inhibition", "setting": "[12]", "result": 60, "unit": "%"},
      {"measurement": "inhibition", "setting": "[13]", "result": 97, "unit": "%"},
      {"measurement": "inhibition", "setting": "[14]", "result": 64, "unit": "%"}
    ]},
    {"smiles": "O=C(Nc1cccc([C@H]2CCCN(c3ncnc4[nH]ccc34)C2)c1)Nc1ccccc1N1CCCC1", "values": [
      {"measurement": "inhibition", "setting": "[15]", "result": 100, "unit": "%"},
      {"measurement": "inhibition", "setting": "[16]", "result": 96, "unit": "%"},
      {"measurement": "inhibition", "setting": "[17]", "result": 100, "unit": "%"},
      {"measurement": "inhibition", "setting": "[18]", "result": 53, "unit": "%"},
      {"measurement": "inhibition", "setting": "[19]", "result": 77, "unit": "%"},
      {"measurement": "inhibition", "setting": "[20]", "result": 7.2, "unit": "%"},
      {"measurement": "inhibition", "setting": "[21]", "result": 0.3, "unit": "%"},
      {"measurement": "inhibition", "setting": "[22]", "result": 59, "unit": "%"},
      {"measurement": "inhibition", "setting": "[23]", "result": 29, "unit": "%"},
      {"measurement": "inhibition", "setting": "[24]", "result": 77, "unit": "%"},
      {"measurement": "inhibition", "setting": "[25]", "result": 66, "unit": "%"},
      {"measurement": "inhibition", "setting": "[26]", "result": 67, "unit": "%"},
      {"measurement": "inhibition", "setting": "[27]", "result": 50, "unit": "%"}
    ]}
  ]
}
